Experimental data from the NIST ThermoML archive (doi:10.1016/j.jct.2015.08.014).

Assay: xn = mol fraction of the nth substance listed
Details: 100 kPa, Liquid; for electrical conductivity: Alternating current cell with electrodes; for mass density: Vibrating tube method; for viscosity: Capillary tube (Ostwald / Ubbelohde) method

CCCC[N+]1(C)CCCC1.N#CN=C=[N-] [1-butyl-1-methylpyrrolidinium dicyanamide] + O=C1CCCO1
Details | electrical conductivity [S/m]
303.15 K, Frequency=0.00857143 MHz, x1 = 0.2493 | 2.86
303.15 K, Frequency=0.00857143 MHz, x1 = 0.3029 | 2.79
303.15 K, Frequency=0.00857143 MHz, x1 = 0.3845 | 2.62
303.15 K, Frequency=0.00857143 MHz, x1 = 0.4985 | 2.33
303.15 K, Frequency=0.00857143 MHz, x1 = 0.6954 | 1.913
303.15 K, Frequency=0.00857143 MHz, x1 = 0.9013 | 1.609
303.15 K, Frequency=0.00857143 MHz, x1 = 1 | 1.527
303.15 K, Frequency=0.00892857 MHz, x1 = 0.0463 | 1.58
303.15 K, Frequency=0.00892857 MHz, x1 = 0.0987 | 2.38
303.15 K, Frequency=0.00892857 MHz, x1 = 0.1449 | 2.71
303.15 K, Frequency=0.00892857 MHz, x1 = 0.1859 | 2.902
303.15 K, Frequency=0.00892857 MHz, x1 = 0.2493 | 2.86
303.15 K, Frequency=0.00892857 MHz, x1 = 0.3029 | 2.79
303.15 K, Frequency=0.00892857 MHz, x1 = 0.3845 | 2.62
303.15 K, Frequency=0.00892857 MHz, x1 = 0.4985 | 2.33
303.15 K, Frequency=0.00892857 MHz, x1 = 0.6954 | 1.913
303.15 K, Frequency=0.00892857 MHz, x1 = 0.9013 | 1.609
303.15 K, Frequency=0.00892857 MHz, x1 = 1 | 1.527
303.15 K, Frequency=0.00961538 MHz, x1 = 0.0463 | 1.58
303.15 K, Frequency=0.00961538 MHz, x1 = 0.0987 | 2.38
303.15 K, Frequency=0.00961538 MHz, x1 = 0.1449 | 2.71
303.15 K, Frequency=0.00961538 MHz, x1 = 0.1859 | 2.903
303.15 K, Frequency=0.00961538 MHz, x1 = 0.2493 | 2.86
303.15 K, Frequency=0.00961538 MHz, x1 = 0.3029 | 2.79
303.15 K, Frequency=0.00961538 MHz, x1 = 0.3845 | 2.62
303.15 K, Frequency=0.00961538 MHz, x1 = 0.4985 | 2.33
303.15 K, Frequency=0.00961538 MHz, x1 = 0.6954 | 1.913
303.15 K, Frequency=0.00961538 MHz, x1 = 0.9013 | 1.609
303.15 K, Frequency=0.00961538 MHz, x1 = 1 | 1.527
303.15 K, Frequency=0.01 MHz, x1 = 0.0463 | 1.58
303.15 K, Frequency=0.01 MHz, x1 = 0.0987 | 2.38
303.15 K, Frequency=0.01 MHz, x1 = 0.1449 | 2.71
303.15 K, Frequency=0.01 MHz, x1 = 0.1859 | 2.903
303.15 K, Frequency=0.01 MHz, x1 = 0.2493 | 2.86
303.15 K, Frequency=0.01 MHz, x1 = 0.3029 | 2.79
303.15 K, Frequency=0.01 MHz, x1 = 0.3845 | 2.62
303.15 K, Frequency=0.01 MHz, x1 = 0.4985 | 2.33
303.15 K, Frequency=0.01 MHz, x1 = 0.6954 | 1.913
303.15 K, Frequency=0.01 MHz, x1 = 0.9013 | 1.609
303.15 K, Frequency=0.01 MHz, x1 = 1 | 1.527
313.15 K, Frequency=0.0005 MHz, x1 = 0.0463 | 1.78
313.15 K, Frequency=0.0005 MHz, x1 = 0.0987 | 2.71
313.15 K, Frequency=0.0005 MHz, x1 = 0.1449 | 3.13
313.15 K, Frequency=0.0005 MHz, x1 = 0.1859 | 3.34
313.15 K, Frequency=0.0005 MHz, x1 = 0.2493 | 3.35
313.15 K, Frequency=0.0005 MHz, x1 = 0.3029 | 3.302
313.15 K, Frequency=0.0005 MHz, x1 = 0.3845 | 3.15
313.15 K, Frequency=0.0005 MHz, x1 = 0.4985 | 2.87
313.15 K, Frequency=0.0005 MHz, x1 = 0.6954 | 2.421
313.15 K, Frequency=0.0005 MHz, x1 = 0.9013 | 2.08
313.15 K, Frequency=0.0005 MHz, x1 = 1 | 1.99
313.15 K, Frequency=0.001 MHz, x1 = 0.0463 | 1.78
313.15 K, Frequency=0.001 MHz, x1 = 0.0987 | 2.71
313.15 K, Frequency=0.001 MHz, x1 = 0.1449 | 3.13
313.15 K, Frequency=0.001 MHz, x1 = 0.1859 | 3.35
313.15 K, Frequency=0.001 MHz, x1 = 0.2493 | 3.36
313.15 K, Frequency=0.001 MHz, x1 = 0.3029 | 3.309
313.15 K, Frequency=0.001 MHz, x1 = 0.3845 | 3.15
313.15 K, Frequency=0.001 MHz, x1 = 0.4985 | 2.87
313.15 K, Frequency=0.001 MHz, x1 = 0.6954 | 2.422
313.15 K, Frequency=0.001 MHz, x1 = 0.9013 | 2.08
313.15 K, Frequency=0.001 MHz, x1 = 1 | 2
313.15 K, Frequency=0.0015 MHz, x1 = 0.0463 | 1.79
313.15 K, Frequency=0.0015 MHz, x1 = 0.0987 | 2.72
313.15 K, Frequency=0.0015 MHz, x1 = 0.1449 | 3.13
313.15 K, Frequency=0.0015 MHz, x1 = 0.1859 | 3.35
313.15 K, Frequency=0.0015 MHz, x1 = 0.2493 | 3.36
313.15 K, Frequency=0.0015 MHz, x1 = 0.3029 | 3.312
313.15 K, Frequency=0.0015 MHz, x1 = 0.3845 | 3.16
313.15 K, Frequency=0.0015 MHz, x1 = 0.4985 | 2.87
313.15 K, Frequency=0.0015 MHz, x1 = 0.6954 | 2.424
313.15 K, Frequency=0.0015 MHz, x1 = 0.9013 | 2.09
313.15 K, Frequency=0.0015 MHz, x1 = 1 | 2
313.15 K, Frequency=0.002 MHz, x1 = 0.0463 | 1.79
313.15 K, Frequency=0.002 MHz, x1 = 0.0987 | 2.72
313.15 K, Frequency=0.002 MHz, x1 = 0.1449 | 3.13
313.15 K, Frequency=0.002 MHz, x1 = 0.1859 | 3.36
313.15 K, Frequency=0.002 MHz, x1 = 0.2493 | 3.36
313.15 K, Frequency=0.002 MHz, x1 = 0.3029 | 3.314
313.15 K, Frequency=0.002 MHz, x1 = 0.3845 | 3.16
313.15 K, Frequency=0.002 MHz, x1 = 0.4985 | 2.87
313.15 K, Frequency=0.002 MHz, x1 = 0.6954 | 2.424
313.15 K, Frequency=0.002 MHz, x1 = 0.9013 | 2.09

Details | electrical conductivity, 313.15 K [S/m] | mass density, 303.15 K [kg/m3] | viscosity, 313.15 K [mPa·s]
x1 = 0.0463 | 1.79 | – | –
x1 = 0.0987 | 2.73 | 1099.02 | 2.18
x1 = 0.1449 | 3.13 | – | –
x1 = 0.1859 | 3.37 | 1083.47 | 3.04
x1 = 0.2493 | 3.36 | – | –
x1 = 0.3029 | 3.319 | 1066.18 | 4.52
x1 = 0.3845 | 3.16 | – | –
x1 = 0.4985 | 2.88 | 1044.28 | 7.85
x1 = 0.6954 | 2.426 | 1028.17 | 12.31
x1 = 0.9013 | 2.09 | 1015.57 | 18.01
x1 = 1 | 2 | 1010.64 | 21.07
